{"source": "PubChem BioAssay (NCI)", "assay_in_all_cases": "growth of human tumour cells (NCI), 48 h", "key": {"[1]": {"tested_on": "HCC-2998 colon"}, "[2]": {"tested_on": "A549 NSCLC"}, "[3]": {"tested_on": "MDA-MB-231 breast"}, "[4]": {"tested_on": "RXF 393 renal"}, "[5]": {"tested_on": "BT-549 breast"}, "[6]": {"tested_on": "HCT-15 colon"}, "[7]": {"tested_on": "UACC-62 melanoma"}, "[8]": {"tested_on": "NCI/ADR-RES ovarian"}, "[9]": {"tested_on": "SK-MEL-2 melanoma"}, "[10]": {"tested_on": "CCRF-CEM leukemia"}, "[11]": {"tested_on": "SNB-75 CNS"}, "[12]": {"tested_on": "OVCAR-3 ovarian"}, "[13]": {"tested_on": "NCI-H460 lung"}, "[14]": {"tested_on": "HOP-92 NSCLC"}, "[15]": {"tested_on": "K-562 leukemia"}, "[16]": {"tested_on": "U251 CNS"}, "[17]": {"tested_on": "SF-295 CNS"}, "[18]": {"tested_on": "SF-268 CNS"}, "[19]": {"tested_on": "NCI-H226 lung"}, "[20]": {"tested_on": "KM12 colon"}, "[21]": {"tested_on": "TK-10 renal"}, "[22]": {"tested_on": "LOX IMVI melanoma"}, "[23]": {"tested_on": "EKVX NSCLC"}, "[24]": {"tested_on": "PC-3 prostate"}, "[25]": {"tested_on": "SR leukemia"}, "[26]": {"tested_on": "ACHN renal"}, "[27]": {"tested_on": "MALME-3M melanoma"}, "[28]": {"tested_on": "CAKI-1 renal"}, "[29]": {"tested_on": "RPMI-8226 leukemia"}}, "note": "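Test compounds were applied to cells in 96-well plates for 48 hours at 5 doses. GI50: concentration for 50% inhibition of growth. At the TGI there is no net growth.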"}
{"compound": "C(#Cc1ccccc1C#Cc1cnccn1)c1cnccn1", "values": [{"measurement": "GI50", "setting": "[1]", "result": 32.2, "unit": "µM"}, {"measurement": "TGI", "setting": "[1]", "result": "> 100", "unit": "µM"}, {"measurement": "GI50", "setting": "[2]", "result": 34.5, "unit": "µM"}, {"measurement": "TGI", "setting": "[2]", "result": "> 86.3", "unit": "µM"}, {"measurement": "GI50", "setting": "[3]", "result": 21.4, "unit": "µM"}, {"measurement": "TGI", "setting": "[3]", "result": "> 71.9", "unit": "µM"}, {"measurement": "GI50", "setting": "[4]", "result": "> 100", "unit": "µM"}, {"measurement": "TGI", "setting": "[4]", "result": "> 100", "unit": "µM"}, {"measurement": "GI50", "setting": "[5]", "result": 21.6, "unit": "µM"}, {"measurement": "TGI", "setting": "[5]", "result": "> 85.8", "unit": "µM"}, {"measurement": "GI50", "setting": "[6]", "result": 17.5, "unit": "µM"}, {"measurement": "TGI", "setting": "[6]", "result": 56, "unit": "µM"}, {"measurement": "GI50", "setting": "[7]", "result": 17.5, "unit": "µM"}, {"measurement": "TGI", "setting": "[7]", "result": 51.4, "unit": "µM"}, {"measurement": "GI50", "setting": "[8]", "result": 23.2, "unit": "µM"}, {"measurement": "TGI", "setting": "[8]", "result": "> 75.8", "unit": "µM"}, {"measurement": "GI50", "setting": "[9]", "result": "> 38.9", "unit": "µM"}, {"measurement": "TGI", "setting": "[9]", "result": "> 61.1", "unit": "µM"}, {"measurement": "GI50", "setting": "[10]", "result": 32.3, "unit": "µM"}, {"measurement": "TGI", "setting": "[10]", "result": "> 100", "unit": "µM"}, {"measurement": "GI50", "setting": "[11]", "result": 29.2, "unit": "µM"}, {"measurement": "TGI", "setting": "[11]", "result": "> 100", "unit": "µM"}, {"measurement": "GI50", "setting": "[12]", "result": 21.5, "unit": "µM"}, {"measurement": "TGI", "setting": "[12]", "result": "> 63.1", "unit": "µM"}, {"measurement": "GI50", "setting": "[13]", "result": 18.3, "unit": "µM"}, {"measurement": "TGI", "setting": "[13]", "result": "> 71.9", "unit": "µM"}, {"measurement": "GI50", "setting": "[14]", "result": 79.5, "unit": "µM"}, {"measurement": "TGI", "setting": "[14]", "result": "> 100", "unit": "µM"}, {"measurement": "GI50", "setting": "[15]", "result": 9.02, "unit": "µM"}, {"measurement": "TGI", "setting": "[15]", "result": "> 44.3", "unit": "µM"}, {"measurement": "GI50", "setting": "[16]", "result": 48, "unit": "µM"}, {"measurement": "TGI", "setting": "[16]", "result": "> 100", "unit": "µM"}, {"measurement": "GI50", "setting": "[17]", "result": 30.3, "unit": "µM"}, {"measurement": "TGI", "setting": "[17]", "result": "> 74", "unit": "µM"}, {"measurement": "GI50", "setting": "[18]", "result": 17.3, "unit": "µM"}, {"measurement": "TGI", "setting": "[18]", "result": 55.3, "unit": "µM"}, {"measurement": "GI50", "setting": "[19]", "result": 28.1, "unit": "µM"}, {"measurement": "TGI", "setting": "[19]", "result": "> 78.4", "unit": "µM"}, {"measurement": "GI50", "setting": "[20]", "result": 26.1, "unit": "µM"}, {"measurement": "TGI", "setting": "[20]", "result": 68.3, "unit": "µM"}, {"measurement": "GI50", "setting": "[21]", "result": 27.2, "unit": "µM"}, {"measurement": "TGI", "setting": "[21]", "result": "> 78.2", "unit": "µM"}, {"measurement": "GI50", "setting": "[22]", "result": 17.3, "unit": "µM"}, {"measurement": "TGI", "setting": "[22]", "result": 53.4, "unit": "µM"}, {"measurement": "GI50", "setting": "[23]", "result": 35.3, "unit": "µM"}, {"measurement": "TGI", "setting": "[23]", "result": "> 100", "unit": "µM"}, {"measurement": "GI50", "setting": "[24]", "result": 18.6, "unit": "µM"}, {"measurement": "TGI", "setting": "[24]", "result": 55.3, "unit": "µM"}, {"measurement": "GI50", "setting": "[25]", "result": 6.81, "unit": "µM"}, {"measurement": "TGI", "setting": "[25]", "result": "> 100", "unit": "µM"}, {"measurement": "GI50", "setting": "[26]", "result": 19.2, "unit": "µM"}, {"measurement": "TGI", "setting": "[26]", "result": "> 68.9", "unit": "µM"}, {"measurement": "GI50", "setting": "[27]", "result": 29.8, "unit": "µM"}, {"measurement": "TGI", "setting": "[27]", "result": 80.4, "unit": "µM"}, {"measurement": "GI50", "setting": "[28]", "result": 12.5, "unit": "µM"}, {"measurement": "TGI", "setting": "[28]", "result": 51.5, "unit": "µM"}, {"measurement": "GI50", "setting": "[29]", "result": 21.2, "unit": "µM"}]}
